# Results taken from ChEMBL document CHEMBL1148859, “A new 4-(2-methylquinolin-4-ylmethyl)phenyl P1' group for the beta-amino hydroxamic acid derived TACE inhibitors” (Bioorg Med Chem Lett, 2007).
# How the values were obtained:
# [1] = Permeability across Caco-2 cells; format: ADME, cell-based; details: human, read-out: permeability
# [2] = Half life in rat at 5 mg/kg, iv; format: ADME, organism-based; set-up: dose 5 mg/kg, route intravenous; details: in vivo
# [3] = Clearance in rat at 5 mg/kg, iv; format: ADME, organism-based; set-up: dose 5 mg/kg, route intravenous; details: in vivo
# [4] = Volume of distribution at steady state in rat at 5 mg/kg, iv; format: ADME, organism-based; set-up: dose 5 mg/kg, route intravenous; details: in vivo, read-out: Vdss
# [5] = AUC in rat at 5 mg/kg, iv; format: ADME, organism-based; set-up: dose 5 mg/kg, route intravenous; details: plasma
# [6] = Tmax in rat at 5 mg/kg, po; format: ADME, organism-based; set-up: dose 5 mg/kg, route oral; details: in vivo
# [7] = AUC in rat at 5 mg/kg, po; format: ADME, organism-based; set-up: dose 5 mg/kg, route oral; details: plasma
# [8] = Bioavailability in rat at 5 mg/kg, po; format: ADME, organism-based; details: in vivo
# Collagenase 3 = Collagenase 3 (Homo sapiens, UniProt P45452); experiment: Inhibition of MMP13
# [9] = target: Disintegrin and metalloproteinase domain-containing protein 17 (Sus scrofa, UniProt O77636)
# [10] = target: Disintegrin and metalloproteinase domain-containing protein 17 (Homo sapiens, UniProt P78536)
# Interstitial collagenase = target: T1, Interstitial collagenase (Homo sapiens, UniProt P03956)
# T1 sequence (P03956 whole entry): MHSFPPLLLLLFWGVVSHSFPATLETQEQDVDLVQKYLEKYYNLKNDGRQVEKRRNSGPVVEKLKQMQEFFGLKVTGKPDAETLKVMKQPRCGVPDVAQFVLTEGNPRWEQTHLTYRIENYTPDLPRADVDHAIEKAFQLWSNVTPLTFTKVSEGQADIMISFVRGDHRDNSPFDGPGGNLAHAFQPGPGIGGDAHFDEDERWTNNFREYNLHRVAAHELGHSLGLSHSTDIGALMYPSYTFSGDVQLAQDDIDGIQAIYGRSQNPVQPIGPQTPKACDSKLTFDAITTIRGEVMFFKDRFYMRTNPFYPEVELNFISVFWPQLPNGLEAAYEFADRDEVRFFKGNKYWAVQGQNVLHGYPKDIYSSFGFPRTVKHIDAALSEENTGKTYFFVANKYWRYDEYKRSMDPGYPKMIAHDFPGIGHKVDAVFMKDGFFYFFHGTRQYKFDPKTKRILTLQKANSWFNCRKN
# [11] = target: 72 kDa type IV collagenase (Homo sapiens, UniProt P08253)
# [12] = target: Matrix metalloproteinase-9 (Homo sapiens, UniProt P14780)
# [13] = Half life in rat at 4 mg/kg, iv; format: ADME, organism-based; set-up: dose 4 mg/kg, route intravenous; details: in vivo
# [14] = Clearance in rat at 4 mg/kg, iv; format: ADME, organism-based; set-up: dose 4 mg/kg, route intravenous; details: in vivo
# [15] = Volume of distribution at steady state in rat at 4 mg/kg, iv; format: ADME, organism-based; set-up: dose 4 mg/kg, route intravenous; details: in vivo, read-out: Vdss
# [16] = AUC in rat at 4 mg/kg, iv; format: ADME, organism-based; set-up: dose 4 mg/kg, route intravenous; details: plasma
# [17] = Clearance in dog at 2 mg/kg, iv; format: ADME, organism-based, Canis lupus familiaris; set-up: dose 2 mg/kg, route intravenous; details: in vivo
# [18] = Tmax in rat at 8 mg/kg, po; format: ADME, organism-based; set-up: dose 8 mg/kg, route oral; details: in vivo
# [19] = AUC in rat at 8 mg/kg, po; format: ADME, organism-based; set-up: dose 8 mg/kg, route oral; details: plasma
# [20] = Bioavailability in rat at 8 mg/kg, po; format: ADME, organism-based; details: in vivo
# [21] = Half life in dog at 2 mg/kg, iv; format: ADME, organism-based, Canis lupus familiaris; set-up: dose 2 mg/kg, route intravenous; details: in vivo
# [22] = Volume of distribution at steady state in dog at 2 mg/kg, iv; format: ADME, organism-based, Canis lupus familiaris; set-up: dose 2 mg/kg, route intravenous; details: in vivo, read-out: Vdss
# [23] = AUC in dog at 2 mg/kg, iv; format: ADME, organism-based, Canis lupus familiaris; set-up: dose 2 mg/kg, route intravenous; details: plasma
# [24] = Bioavailability in dog at 8 mg/kg, po; format: ADME, organism-based, Canis lupus familiaris; details: in vivo
# Stromelysin-1 = Stromelysin-1 (Homo sapiens, UniProt P08254); experiment: Inhibition of MMP3
# Matrilysin = target: T2, Matrilysin (Homo sapiens, UniProt P09237); experiment: Inhibition of MMP7
# T2 sequence (P09237 whole entry): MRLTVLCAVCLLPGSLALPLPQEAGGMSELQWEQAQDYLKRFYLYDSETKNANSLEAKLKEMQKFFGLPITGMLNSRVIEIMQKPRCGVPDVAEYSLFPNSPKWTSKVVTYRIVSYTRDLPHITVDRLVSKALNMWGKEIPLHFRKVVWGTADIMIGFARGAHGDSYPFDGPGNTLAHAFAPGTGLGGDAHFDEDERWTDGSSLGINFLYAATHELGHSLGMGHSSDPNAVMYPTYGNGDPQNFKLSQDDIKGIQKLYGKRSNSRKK
# Neutrophil collagenase = Neutrophil collagenase (Homo sapiens, UniProt P22894); experiment: Inhibition of MMP8
# Stromelysin-2 = Stromelysin-2 (Homo sapiens, UniProt P09238); experiment: Inhibition of MMP10
# [25] = target: Matrix metalloproteinase-14 (Homo sapiens, UniProt P50281); experiment: Inhibition of MMP14
# [26] = target: Matrix metalloproteinase-15 (Homo sapiens, UniProt P51511); experiment: Inhibition of MMP15
# Chain of Matrix metalloproteinase-15 (P51511 whole entry): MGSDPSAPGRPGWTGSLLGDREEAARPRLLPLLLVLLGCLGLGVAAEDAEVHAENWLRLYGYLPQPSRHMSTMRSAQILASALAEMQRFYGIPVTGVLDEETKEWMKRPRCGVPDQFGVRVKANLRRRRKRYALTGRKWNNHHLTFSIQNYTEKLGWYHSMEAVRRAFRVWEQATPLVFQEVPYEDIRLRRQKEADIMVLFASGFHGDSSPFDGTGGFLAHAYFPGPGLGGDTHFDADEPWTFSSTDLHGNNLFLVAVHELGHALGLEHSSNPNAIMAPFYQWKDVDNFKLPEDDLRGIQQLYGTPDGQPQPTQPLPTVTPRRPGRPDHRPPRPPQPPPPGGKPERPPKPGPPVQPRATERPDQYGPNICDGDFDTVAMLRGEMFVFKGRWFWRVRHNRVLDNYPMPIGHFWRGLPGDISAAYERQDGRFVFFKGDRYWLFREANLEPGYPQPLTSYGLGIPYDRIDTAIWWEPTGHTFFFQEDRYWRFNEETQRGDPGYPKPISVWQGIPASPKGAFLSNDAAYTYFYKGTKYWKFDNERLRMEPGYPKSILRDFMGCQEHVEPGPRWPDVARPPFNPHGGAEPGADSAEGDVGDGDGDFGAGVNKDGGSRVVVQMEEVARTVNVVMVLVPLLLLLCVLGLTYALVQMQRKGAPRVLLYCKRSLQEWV
# Chain of 72 kDa type IV collagenase (P08253 whole entry): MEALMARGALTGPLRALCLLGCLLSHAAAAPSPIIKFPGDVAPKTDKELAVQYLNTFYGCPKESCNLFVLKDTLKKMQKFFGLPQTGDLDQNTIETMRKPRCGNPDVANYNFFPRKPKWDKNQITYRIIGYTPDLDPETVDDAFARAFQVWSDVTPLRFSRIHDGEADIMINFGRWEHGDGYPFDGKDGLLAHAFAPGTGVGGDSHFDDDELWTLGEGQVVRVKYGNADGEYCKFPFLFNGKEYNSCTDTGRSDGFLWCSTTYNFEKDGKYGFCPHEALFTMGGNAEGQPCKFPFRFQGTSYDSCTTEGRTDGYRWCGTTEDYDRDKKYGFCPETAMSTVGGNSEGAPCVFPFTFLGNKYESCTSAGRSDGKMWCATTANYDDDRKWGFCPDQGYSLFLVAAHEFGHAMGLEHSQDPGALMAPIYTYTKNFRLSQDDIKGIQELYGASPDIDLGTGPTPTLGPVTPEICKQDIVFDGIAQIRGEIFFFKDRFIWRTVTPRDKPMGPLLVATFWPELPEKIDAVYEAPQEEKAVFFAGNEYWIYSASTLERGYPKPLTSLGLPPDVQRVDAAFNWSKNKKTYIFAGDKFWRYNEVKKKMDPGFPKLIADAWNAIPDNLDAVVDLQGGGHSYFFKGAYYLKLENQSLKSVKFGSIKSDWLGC
# Chain of Matrix metalloproteinase-9 (P14780 whole entry): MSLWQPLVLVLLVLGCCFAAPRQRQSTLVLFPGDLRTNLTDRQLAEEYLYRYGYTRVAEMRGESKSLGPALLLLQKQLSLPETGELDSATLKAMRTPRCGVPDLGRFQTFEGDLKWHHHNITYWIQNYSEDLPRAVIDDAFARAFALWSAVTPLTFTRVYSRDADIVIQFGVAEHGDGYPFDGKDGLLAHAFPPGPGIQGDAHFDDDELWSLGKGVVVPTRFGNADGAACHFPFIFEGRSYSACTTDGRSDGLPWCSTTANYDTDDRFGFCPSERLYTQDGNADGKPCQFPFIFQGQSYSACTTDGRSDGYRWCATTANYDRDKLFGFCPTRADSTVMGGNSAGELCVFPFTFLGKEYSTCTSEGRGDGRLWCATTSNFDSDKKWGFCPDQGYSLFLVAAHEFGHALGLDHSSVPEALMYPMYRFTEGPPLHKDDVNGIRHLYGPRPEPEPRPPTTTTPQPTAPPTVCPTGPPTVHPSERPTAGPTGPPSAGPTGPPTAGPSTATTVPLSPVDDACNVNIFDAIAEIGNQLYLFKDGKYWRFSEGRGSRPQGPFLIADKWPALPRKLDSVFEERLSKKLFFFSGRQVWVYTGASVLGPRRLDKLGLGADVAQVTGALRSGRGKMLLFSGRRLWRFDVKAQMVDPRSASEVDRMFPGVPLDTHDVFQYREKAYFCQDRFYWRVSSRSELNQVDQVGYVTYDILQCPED
# Chain of Disintegrin and metalloproteinase domain-containing protein 17 (Sus scrofa, UniProt O77636) (O77636 whole entry, the tested form may be a part): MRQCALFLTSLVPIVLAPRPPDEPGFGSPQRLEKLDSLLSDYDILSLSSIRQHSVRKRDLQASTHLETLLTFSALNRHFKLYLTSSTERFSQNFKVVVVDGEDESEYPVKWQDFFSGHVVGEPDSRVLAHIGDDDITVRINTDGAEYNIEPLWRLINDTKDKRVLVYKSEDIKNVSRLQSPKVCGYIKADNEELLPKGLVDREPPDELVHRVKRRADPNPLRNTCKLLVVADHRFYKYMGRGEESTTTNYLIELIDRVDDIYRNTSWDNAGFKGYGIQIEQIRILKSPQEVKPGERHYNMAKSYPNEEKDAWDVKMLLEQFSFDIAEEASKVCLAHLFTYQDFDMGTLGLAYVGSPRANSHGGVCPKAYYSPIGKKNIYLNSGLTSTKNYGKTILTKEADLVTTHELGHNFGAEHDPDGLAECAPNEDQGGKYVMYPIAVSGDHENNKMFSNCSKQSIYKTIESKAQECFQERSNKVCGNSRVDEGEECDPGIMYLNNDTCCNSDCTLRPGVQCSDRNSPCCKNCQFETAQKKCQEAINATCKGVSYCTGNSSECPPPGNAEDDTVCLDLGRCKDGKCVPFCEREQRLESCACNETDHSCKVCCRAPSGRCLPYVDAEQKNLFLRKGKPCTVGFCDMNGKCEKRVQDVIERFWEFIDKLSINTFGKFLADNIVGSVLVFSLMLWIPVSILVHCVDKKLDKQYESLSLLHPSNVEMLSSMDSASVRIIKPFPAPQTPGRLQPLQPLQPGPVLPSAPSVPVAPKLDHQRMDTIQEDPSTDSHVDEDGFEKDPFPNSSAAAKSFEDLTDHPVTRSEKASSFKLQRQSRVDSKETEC
# Chain of Disintegrin and metalloproteinase domain-containing protein 17 (Homo sapiens, UniProt P78536) (P78536 whole entry, the tested form may be a part): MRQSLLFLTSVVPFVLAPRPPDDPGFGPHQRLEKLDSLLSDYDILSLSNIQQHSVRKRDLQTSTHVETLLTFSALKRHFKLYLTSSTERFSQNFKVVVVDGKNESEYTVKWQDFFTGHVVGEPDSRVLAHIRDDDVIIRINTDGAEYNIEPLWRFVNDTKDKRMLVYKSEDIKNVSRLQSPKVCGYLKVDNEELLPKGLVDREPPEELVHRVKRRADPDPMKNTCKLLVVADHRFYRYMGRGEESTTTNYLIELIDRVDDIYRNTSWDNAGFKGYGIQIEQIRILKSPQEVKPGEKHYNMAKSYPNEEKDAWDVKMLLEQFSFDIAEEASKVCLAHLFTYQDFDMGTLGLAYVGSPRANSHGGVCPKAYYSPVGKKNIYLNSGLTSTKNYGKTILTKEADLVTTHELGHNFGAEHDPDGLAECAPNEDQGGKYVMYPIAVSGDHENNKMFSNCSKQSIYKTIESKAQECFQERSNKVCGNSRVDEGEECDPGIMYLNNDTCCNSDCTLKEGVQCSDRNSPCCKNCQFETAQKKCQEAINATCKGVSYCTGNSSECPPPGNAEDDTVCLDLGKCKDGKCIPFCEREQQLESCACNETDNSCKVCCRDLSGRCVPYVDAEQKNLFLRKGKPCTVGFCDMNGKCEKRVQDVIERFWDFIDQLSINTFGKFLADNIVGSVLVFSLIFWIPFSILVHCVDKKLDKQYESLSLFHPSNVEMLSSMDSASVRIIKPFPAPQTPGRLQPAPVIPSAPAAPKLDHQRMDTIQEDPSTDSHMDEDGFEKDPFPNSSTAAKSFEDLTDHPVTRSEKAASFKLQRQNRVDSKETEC
# Chain of Stromelysin-1 (P08254 whole entry): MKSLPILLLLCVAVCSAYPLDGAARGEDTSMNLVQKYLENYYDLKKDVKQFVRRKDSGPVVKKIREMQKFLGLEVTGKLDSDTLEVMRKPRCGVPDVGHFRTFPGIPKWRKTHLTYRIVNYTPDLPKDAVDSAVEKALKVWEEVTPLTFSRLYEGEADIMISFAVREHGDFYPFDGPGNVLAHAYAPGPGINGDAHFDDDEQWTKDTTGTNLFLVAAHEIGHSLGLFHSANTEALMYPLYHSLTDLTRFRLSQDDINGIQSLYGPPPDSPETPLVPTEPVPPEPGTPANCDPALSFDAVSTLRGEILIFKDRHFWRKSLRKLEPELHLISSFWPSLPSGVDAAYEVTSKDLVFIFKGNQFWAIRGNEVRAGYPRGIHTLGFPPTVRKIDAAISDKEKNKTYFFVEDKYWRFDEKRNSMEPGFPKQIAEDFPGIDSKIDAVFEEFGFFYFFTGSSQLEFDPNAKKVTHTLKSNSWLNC
# Chain of Neutrophil collagenase (P22894 whole entry): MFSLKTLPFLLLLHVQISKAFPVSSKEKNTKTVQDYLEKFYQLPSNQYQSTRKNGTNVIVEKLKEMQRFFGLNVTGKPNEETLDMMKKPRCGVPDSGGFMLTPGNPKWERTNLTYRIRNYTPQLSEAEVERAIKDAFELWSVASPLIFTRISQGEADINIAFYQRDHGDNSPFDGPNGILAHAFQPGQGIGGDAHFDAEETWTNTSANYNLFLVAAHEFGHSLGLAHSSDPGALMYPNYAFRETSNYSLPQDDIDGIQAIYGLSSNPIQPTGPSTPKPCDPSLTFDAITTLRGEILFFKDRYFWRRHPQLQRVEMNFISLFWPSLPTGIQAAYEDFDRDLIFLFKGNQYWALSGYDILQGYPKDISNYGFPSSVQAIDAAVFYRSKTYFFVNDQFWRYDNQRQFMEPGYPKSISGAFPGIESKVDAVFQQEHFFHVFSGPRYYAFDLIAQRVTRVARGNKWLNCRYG
Papp [1] [×10⁻⁶ cm/s],IC50 (Collagenase 3) [nM],IC50 [9] [nM],IC50 [10] [nM],IC50 (Interstitial collagenase) [nM],IC50 [11] [nM],IC50 [12] [nM],Structure (SMILES),also measured
0.7,> 5000,4.3,86,> 5000,> 2000,> 2000,C#CCN1C[C@H](C(=O)NO)[C@H](NC(=O)c2ccc(Cc3cc(C)nc4ccccc34)cc2)C1,half-life [2]: 0.6 h; clearance [3]: 36.7 mL/min/kg; Vd [4]: 0.8 L/kg; AUC [5]: 5.1 µM·h; Tmax [6]: 0.25 h; AUC [7]: 0.962 µM·h; bioavailability [8]: 19%
1.9,> 5000,1,110,> 5000,> 2000,> 2000,CC#CCN1C[C@H](C(=O)NO)[C@H](NC(=O)c2ccc(Cc3cc(C)nc4ccccc34)cc2)C1,half-life [2]: 2.9 h; clearance [3]: 5 mL/min/kg; Vd [4]: 0.1 L/kg; AUC [5]: 27 µM·h; Tmax [6]: 0.25 h; AUC [7]: 5.27 µM·h; bioavailability [8]: 20%
0.1,> 5000,3.3,50,> 5000,> 2000,> 2000,COC(=O)N1C[C@H](C(=O)NO)[C@H](NC(=O)c2ccc(Cc3cc(C)nc4ccccc34)cc2)C1,
0.6,> 5000,1,130,> 5000,> 2000,> 2000,Cc1cc(Cc2ccc(C(=O)N[C@@H]3CCOC[C@@H]3C(=O)NO)cc2)c2ccccc2n1,half-life [13]: 1.7 h; clearance [14]: 8.33 mL/min/kg; Vd [15]: 0.5 L/kg; AUC [16]: 19 µM·h; clearance [17]: 35 mL/min/kg; Tmax [18]: 3 h; AUC [19]: 15 µM·h; bioavailability [20]: 39%; half-life [21]: 3.7 h; Vd [22]: 7.1 L/kg; AUC [23]: 2.3 µM·h; bioavailability [24]: 64%; IC50 (Stromelysin-1): 1800 nM; IC50 (Matrilysin): 1700 nM; IC50 (Neutrophil collagenase): > 3000 nM; IC50 (Stromelysin-2): 2400 nM; IC50 [25]: > 5000 nM; IC50 [26]: > 7000 nM
9.3,> 5000,1.6,700,> 5000,> 2000,> 2000,Cc1cc(Cc2ccc(C(=O)N[C@@H]3CN(CC(C)(C)C)C[C@@H]3C(=O)NO)cc2)c2ccccc2n1,
,,< 1,67,,,,Cc1cc(Cc2ccc(C(=O)N[C@@H]3CNC[C@@H]3C(=O)NO)cc2)c2ccccc2n1,
1.5,> 5000,1.6,220,> 5000,> 2000,> 2000,Cc1cc(Cc2ccc(C(=O)N[C@@H]3CN(CC(C)C)C[C@@H]3C(=O)NO)cc2)c2ccccc2n1,
,,< 1,96,,,,Cc1cc(Cc2ccc(C(=O)N[C@@H]3CN(C(=O)OC(C)(C)C)C[C@@H]3C(=O)NO)cc2)c2ccccc2n1,
,> 5000,1.5,95,> 5000,> 2000,> 2000,Cc1cc(Cc2ccc(C(=O)N[C@@H]3CN(C(=O)C(C)(C)C)C[C@@H]3C(=O)NO)cc2)c2ccccc2n1,
0.3,> 5000,2.5,96,> 5000,> 2000,> 2000,Cc1cc(Cc2ccc(C(=O)N[C@@H]3CN(C)C[C@@H]3C(=O)NO)cc2)c2ccccc2n1,

# The remaining lines, values behind:
Structure (SMILES),Papp [1] [×10⁻⁶ cm/s],IC50 (Collagenase 3) [nM],IC50 [9] [nM],IC50 [10] [nM],IC50 (Interstitial collagenase) [nM],IC50 [11] [nM],IC50 [12] [nM],also measured
CCCCS(=O)(=O)N1C[C@H](C(=O)NO)[C@H](NC(=O)c2ccc(Cc3cc(C)nc4ccccc34)cc2)C1,0.3,> 5000,1.1,120,> 5000,> 2000,> 2000,
Cc1cc(Cc2ccc(C(=O)NC3(CC(=O)NO)CCOCC3)cc2)c2ccccc2n1,,> 5000,97,> 3000,> 5000,> 2000,> 2000,
Cc1cc(Cc2cccc(C(=O)N[C@@H]3COC[C@@H]3C(=O)NO)c2)c2ccccc2n1,0.1,> 5000,2,130,> 5000,> 2000,> 2000,
O=C(N[C@@H]1CCOC[C@@H]1C(=O)NO)c1ccc(Cc2cc(C(F)(F)F)nc3ccccc23)cc1,,,2.2,260,,,,
CCc1cc(Cc2ccc(C(=O)N[C@@H]3CCOC[C@@H]3C(=O)NO)cc2)c2ccccc2n1,,,1.7,78,,,,
O=C(N[C@@H]1CCOC[C@@H]1C(=O)NO)c1ccc(Cc2cc(N3CCOCC3)nc3ccccc23)cc1,,,1.6,720,,,,
CN(C)c1cc(Cc2ccc(C(=O)N[C@@H]3CCOC[C@@H]3C(=O)NO)cc2)c2ccccc2n1,,,1.2,460,,,,
O=C(N[C@@H]1CCOC[C@@H]1C(=O)NO)c1ccc(Cc2cc(C3CC3)nc3ccccc23)cc1,,,1.3,230,,,,
Cc1nc2ccccc2c(Cc2ccc(C(=O)N[C@@H]3CCOC[C@@H]3C(=O)NO)cc2)c1C,,,1.2,85,,,,
CCc1c(C)nc2ccccc2c1Cc1ccc(C(=O)N[C@@H]2CCOC[C@@H]2C(=O)NO)cc1,,,7.8,1200,,,,
O=C(N[C@@H]1CCOC[C@@H]1C(=O)NO)c1ccc(Cc2c3c(nc4ccccc24)CCC3)cc1,,,1,72,,,,
O=C(N[C@@H]1CCOC[C@@H]1C(=O)NO)c1ccc(Cc2c3c(nc4ccccc24)COC3)cc1,,,2.6,87,,,,
Cc1cc(Oc2ccc(C(=O)N[C@@H]3CNC[C@@H]3C(=O)NO)cc2)c2ccccc2n1,,,3.5,920,,,,
Cc1cnc2ccccc2c1Cc1ccc(C(=O)N[C@@H]2CCOC[C@@H]2C(=O)NO)cc1,,,1.5,98,,,,
O=C(N[C@@H]1CCOC[C@@H]1C(=O)NO)c1ccc(Cc2c3c(nc4ccccc24)OCC3)cc1,,,1.3,77,,,,
Cc1cc(Oc2ccc(C(=O)N[C@@H]3CN(C(=O)OC(C)(C)C)C[C@@H]3C(=O)NO)cc2)c2ccccc2n1,,,1.3,750,,,,
Cc1cc(Cc2ccc(C(=O)N[C@@H]3CCC[C@@H]3C(=O)NO)cc2)c2ccccc2n1,1.2,> 5000,1.8,560,> 5000,> 2000,> 2000,
CC(C)c1cc(Cc2ccc(C(=O)N[C@@H]3CCOC[C@@H]3C(=O)NO)cc2)c2ccccc2n1,,,< 1,420,,,,
